The source of these data is the supplement of paper PMC10011410.

Test [1] concerns U-2 OS. Briefly: cell painting activity score (Mahalanobis distance from DMSO wells); higher = stronger morphological phenotype. The following applies: 24 h. The method, boiled down: (§1)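 In this cell painting assay, roughly 1,500 U-2 OS cells per well in 384-well plates were pin-tool treated at 37 °C for 24 h, typically at six 2-fold steps from 20 μM down to 625 nM. Cells were stained with MitoTracker, concanavalin A, phalloidin, wheat germ agglutinin, Hoechst and SYTO 14, imaged on an Opera Phenix, and analysed in CellProfiler with normalization to same-plate DMSO cells. Reported values are means of four replicate plates, with the activity score defined as the Mahalanobis distance from DMSO wells and cell count defined relative to DMSO wells.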

Test [2] deals with U-2 OS. The test is described as follows: AUC of culture confluence over time (live-cell imaging) (AUC (confluence % x time)); higher = more confluent culture (less growth inhibition). How it is done: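 Live-cell Incucyte imaging of U-2 OS cells in F-12K medium. Compounds were tested mostly at 5, 10 and 20 uM, and cells were imaged every 4 h for up to 60 h. Value is the area under the curve of phase-contrast confluence over time.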

Test [3] has as its system U-2 OS. Briefly: relative cell count vs DMSO (cell painting) (fraction of DMSO control); higher = more cells remaining (less cytotoxic). The following applies: 24 h. A digest of the protocol:
as §1

Regarding `Nc1ccn([C@@H]2O[C@H](CO)[C@@H](O)C2(F)F)c(=O)n1`, the “cell painting activity score” value was 13.7 in the test with U-2 OS [1] (0.625 µM); 14 in the test with U-2 OS [1] (1.25 µM); 14.9 with U-2 OS [1] (2.5 µM); 15.2 in the test with U-2 OS [1] (5 µM); 15.4 with U-2 OS [1] (10 µM); 14.3 with U-2 OS [1] (20 µM). Also, the “AUC of culture confluence over time” value in the test on U-2 OS [2] (5 µM) worked out at 29.2; in the test with U-2 OS [2] (10 µM), 31.9; in the test with U-2 OS [2] (20 µM), 28.7. Also, the relative cell count is 0.601 with U-2 OS [3] (0.625 µM); 0.571 in the test with U-2 OS [3] (1.25 µM); 0.574 in the test with U-2 OS [3] (2.5 µM); 0.581 in the test with U-2 OS [3] (5 µM); 0.624 in the test with U-2 OS [3] (10 µM); 0.589 in the test with U-2 OS [3] (20 µM).

For `Nc1ncn([C@H]2C[C@H](O)[C@@H](CO)O2)c(=O)n1`, the “cell painting activity score” value was 6.05 in the test on U-2 OS [1] (0.625 µM); 6.95 in the test on U-2 OS [1] (1.25 µM); 6.26 with U-2 OS [1] (2.5 µM); 6.61 in the test with U-2 OS [1] (5 µM); 5.82 in the test on U-2 OS [1] (10 µM); 5.8 with U-2 OS [1] (20 µM). Further, the “AUC of culture confluence over time” value with U-2 OS [2] (5 µM) is 45.9; in the test on U-2 OS [2] (10 µM), 35.4; in the test on U-2 OS [2] (20 µM), 37.9. The relative cell count in the test with U-2 OS [3] (0.625 µM) worked out at 0.973; with U-2 OS [3] (1.25 µM) it was 0.985; in the test on U-2 OS [3] (2.5 µM), 0.966; in the test with U-2 OS [3] (5 µM), 0.935; in the test on U-2 OS [3] (10 µM), 0.915; with U-2 OS [3] (20 µM), 0.918.

Regarding `CN1C(=O)[C@@]23C[C@]4([C@]56C[C@@]78SS[C@@](CO)(C(=O)N7[C@H]5Nc5ccccc56)N(C)C8=O)c5ccccc5N[C@@H]4N2C(=O)[C@]1(CO)SS3`, the “cell painting activity score” value with U-2 OS [1] (0.625 µM) worked out at 16.3; with U-2 OS [1] (1.25 µM), 21.7; with U-2 OS [1] (2.5 µM), 17.3; in the test with U-2 OS [1] (5 µM), 16.4; in the test with U-2 OS [1] (10 µM) it was 7.82; in the test with U-2 OS [1] (20 µM), 14. Further, the “AUC of culture confluence over time” value in the test with U-2 OS [2] (5 µM) was found to be 9.52; in the test on U-2 OS [2] (10 µM) it was 13.4; in the test with U-2 OS [2] (20 µM), 13.8. Moreover, the relative cell count in the test with U-2 OS [3] (0.625 µM) was found to be 0.176; with U-2 OS [3] (1.25 µM) it was 0.0258; in the test on U-2 OS [3] (2.5 µM) it was 0.0235; with U-2 OS [3] (5 µM) it was 0.0282; in the test with U-2 OS [3] (10 µM) it was 0.0283; with U-2 OS [3] (20 µM) it was 0.0118.

Take `O.O=P1(N(CCCl)CCCl)NCCCO1` (stereo not given): the “cell painting activity score” value in the test on U-2 OS [1] (0.625 µM) amounted to 3.69; with U-2 OS [1] (1.25 µM), 3.83; in the test on U-2 OS [1] (2.5 µM), 3.34; in the test with U-2 OS [1] (5 µM), 3.43; in the test with U-2 OS [1] (10 µM), 4.46; in the test with U-2 OS [1] (20 µM), 9.23. Also, the “AUC of culture confluence over time” value in the test on U-2 OS [2] (5 µM) was found to be 43.1; with U-2 OS [2] (10 µM) it was 41.1; with U-2 OS [2] (20 µM), 44.2. For the same compound, the relative cell count in the test on U-2 OS [3] (0.625 µM) came out at 0.967; in the test with U-2 OS [3] (1.25 µM), 0.999; in the test on U-2 OS [3] (2.5 µM), 0.965; in the test with U-2 OS [3] (5 µM), 0.985; with U-2 OS [3] (10 µM) it was 0.993; in the test on U-2 OS [3] (20 µM), 0.941.

On to `C#CC[C@H](c1nc2cc(Cl)ccc2c(=O)n1Nc1ccccc1)N(CCCN)C(=O)c1cccc(Cl)c1F`, for which the “cell painting activity score” value with U-2 OS [1] (0.625 µM) was found to be 4.72; with U-2 OS [1] (1.25 µM), 4.61; with U-2 OS [1] (2.5 µM), 4.15; with U-2 OS [1] (5 µM), 10.3; in the test on U-2 OS [1] (10 µM), 12.9; in the test with U-2 OS [1] (20 µM), 26.1. Besides, the “AUC of culture confluence over time” value was determined as 26.8 in the test on U-2 OS [2] (5 µM), 13.2 with U-2 OS [2] (10 µM) and 10.4 in the test with U-2 OS [2] (20 µM). Further, the relative cell count worked out at 0.999 in the test with U-2 OS [3] (0.625 µM); 0.984 in the test with U-2 OS [3] (1.25 µM); 0.903 in the test on U-2 OS [3] (2.5 µM); 0.401 in the test with U-2 OS [3] (5 µM); 0.198 in the test on U-2 OS [3] (10 µM); 0.0211 with U-2 OS [3] (20 µM).

In the case of `O=C(O[C@@H]1O[C@@H]2COC(=O)c3cc(O)c(O)c(O)c3-c3c(cc(O)c(O)c3O)C(=O)O[C@H]([C@H]1O)[C@@H]2O)c1cc(O)c(O)c(O)c1`, the “cell painting activity score” value with U-2 OS [1] (0.625 µM) stood at 4.19; in the test on U-2 OS [1] (1.25 µM) it was 3.86; in the test on U-2 OS [1] (2.5 µM), 4.06; in the test on U-2 OS [1] (5 µM), 3.55; with U-2 OS [1] (10 µM), 4.28; in the test with U-2 OS [1] (20 µM), 4.5. Moreover, the figures for the “AUC of culture confluence over time” value with U-2 OS [2] (5 µM), in the test on U-2 OS [2] (10 µM) and in the test with U-2 OS [2] (20 µM) were 48.7, 46.2 and 43.4, respectively. The relative cell count was 1.02 in the test on U-2 OS [3] (0.625 µM); 1.04 with U-2 OS [3] (1.25 µM); 1.01 with U-2 OS [3] (2.5 µM); 1 in the test on U-2 OS [3] (5 µM); 0.979 with U-2 OS [3] (10 µM); 0.978 in the test on U-2 OS [3] (20 µM).

Consider `CNC(=O)c1cc(Oc2ccc(NC(=O)Nc3ccc(Cl)c(C(F)(F)F)c3)cc2)ccn1`, for which the “cell painting activity score” value with U-2 OS [1] (0.625 µM) turned out to be 10.7; with U-2 OS [1] (1.25 µM), 11.4; with U-2 OS [1] (2.5 µM), 10.3; in the test with U-2 OS [1] (5 µM), 12.4; in the test with U-2 OS [1] (10 µM) it was 9.94; in the test with U-2 OS [1] (20 µM), 10.5. The results for the “AUC of culture confluence over time” value in the test with U-2 OS [2] (5 µM), in the test on U-2 OS [2] (10 µM) and in the test with U-2 OS [2] (20 µM) were 50.1, 29.6 and 15.6, respectively. Further, the relative cell count with U-2 OS [3] (0.625 µM) was 1.02; in the test with U-2 OS [3] (1.25 µM), 0.956; in the test with U-2 OS [3] (2.5 µM), 0.971; in the test with U-2 OS [3] (5 µM), 0.978; in the test with U-2 OS [3] (10 µM), 0.705; in the test with U-2 OS [3] (20 µM), 0.348.

Take `O=C(CBr)N1CC([N+](=O)[O-])([N+](=O)[O-])C1`: the “cell painting activity score” value in the test on U-2 OS [1] (0.625 µM) came out at 6.87; in the test with U-2 OS [1] (1.25 µM) it was 7.38; in the test with U-2 OS [1] (2.5 µM) it was 11.3; in the test on U-2 OS [1] (5 µM), 10.6; in the test on U-2 OS [1] (10 µM), 11.8; in the test with U-2 OS [1] (20 µM), 11.3. In addition, the “AUC of culture confluence over time” value in the test with U-2 OS [2] (5 µM) stood at 50; in the test with U-2 OS [2] (10 µM) it was 49.9; with U-2 OS [2] (20 µM), 42.4. Besides, the relative cell count with U-2 OS [3] (0.625 µM) was found to be 0.992; with U-2 OS [3] (1.25 µM), 1.02; with U-2 OS [3] (2.5 µM), 0.919; in the test with U-2 OS [3] (5 µM), 0.891; in the test with U-2 OS [3] (10 µM), 0.972; in the test on U-2 OS [3] (20 µM), 0.873.
